Data on 7 compounds can be found in patent US6384080B1, “Anthranilic acid derivatives as inhibitors of the cGMP-phosphodiesterase” (Fujisawa Pharmaceutical Co., Ltd., priority 1998, dated 2002).

One data set concerns the target T1, human platelet PDE-V (Homo sapiens, UniProt O76074).
T1 construct: Human platelet cGMP-PDE was separated from other isozymes in human platelets; from tissue; host or cells: human platelets
The data set can be described thus: cGMP-Phosphodiesterase (PDE) assay, enzymatic inhibitory test. The data set is classed as biochemical. The settings on record: human platelet PDE-V; 0.1 μM [3H]-cGMP substrate, 30° C., 10 minutes; read-out: Inhibitory activity IC50. Put shortly: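 Enzyme isolated from human platelets; compounds at final 10^−10 to 10^−6 M in Tris-HCl pH 8.0 with DTT, snake venom, 1 mM EGTA. Substrate 0.1 μM [^3H]-cGMP, 30 °C for 10 min at 10-20% hydrolysis; resin-separated ^3H product counted by scintillation.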

For the next data set, the system named is rabbit corpora cavernosa. The data set can be described thus: Relaxation elicited by electrical field stimulation in rabbit corpora cavernosa. Conditions: at 5×10^−8 M. The method, then: (b) Effect of test compounds on the relaxation elicited by electrical field stimulation in rabbit corpora cavernosa.
The rabbit erectile tissue strip prepared according to the method described by Italiano et al. (Pharmacological Research, 30, No 4, 1994) was placed 25 ml organ bath containing Krebs-Ringer solution. The bath was maintained at 37° C. and bubbled with 95% O2 and 5% CO2. The solution also contained atropine (1 μM) and guanethidine (50 μM). The erectile tissue strip was stretched with a resting force of 0.25 g, and isometric contraction were recorded via force development transducer on a recorder. The bipolar platinum electrode connected to the electric stimulator was placed around the strip.
The strip was equilibrated in the Krebs-Ringer solution for about 60 minutes and preconstricted by 0.1 mM norepinephrine to ascertain the responsibility of each preparation. The strip was washed several times, and then constricted by 0.1 mM norepinephrine. After getting stable contractile response to norepinephrine, the first electrical field stimulation (1 to 30 Hz, 20V, 0.5 msec duration, 90 sec interval) was delivered. 30 minutes after adding the tested compound, the second electrical field stimulation was delivered. […]

Data set [1] has as its system isolated rat corpora cavernosa. The data set can be described thus: Nitroprusside-induced relaxation in isolated rat corpora cavernosa. Also noted: species or system SD rat. Conditions: in the presence of the test compound (5×10^−8 M); strip constricted by 0.1 mM norepinephrine; control preparation 20%. The method, then:
(a) Effect of Test Compound on Nitroprusside or Ach-induced Relaxation in Isolated Rat Corpora Cavernosa.
Male SD rats were anesthetized with sodium pentobarbital 50 mg/kg intraperitoneally, and the corpora cavernosa was excised. The tunica albuginea was dissected according to the methods described by Italiano et al. (Pharmacological Research, 30, No. 4, 1994) and used for in vitro pharmacological study. The erectile tissue strip was placed in a 25 ml organ bath containing Krebs-Ringer solution. The bath was maintained at 37° C. and bubbled with 95% O2 and 5% CO2. The strip was stretched with a resting force of 0.25 g, and isometric contraction were recorded via force development transducer on a recorder.
The strip was equilibrated in the Krebs-Ringer solution for about 60 minutes, and preconstructed by 0.1 mM norepinephrine to ascertain the responsibility of each preparation. The strip was washed several times, and then constricted by 0.1 mM norepinephrine. After getting stable constrictile response to norepinephrine, the first dose-response curve for sodium nitroprusside or Ach(acetylcholine) was obtained. After washing a few times for 60 minutes, the strip was constricted by norepinephrine again, and the second dose-response curve for sodium nitroprusside or Ach was obtained. […]

The next data set relates to SD rat. The data set is classed as in vivo. The settings on record: 32 mg/kg once a day for 14 consecutive days. The method, then:
Toxicities of Compound (I)
Test on the toxicity by repetitive oral administration of the compounds, i.e., N-(3,4-dimethoxybenzyl)-2-(cis-4-hydroxycyclohexylamino)-5-nitrobenzamide and (R)-N-(3,4-dimethoxybenzyl)-2-(2-hydroxy-1-methylethylamino)-5-nitrobenzamide which were selected as representative compounds of this invention, in SD rat was conducted.

The test system of a further data set is Male beagle. The data set can be described thus: Duration of detumescence (T75) after cavernous nerve electrical stimulation in anesthetized beagle. The data set is classed as in vivo. Conditions: 0.1 mg/kg, i.v., cavernous nerve stimulation 7 Hz, 10 V, T75 = time from cessation of stimulation to 75% reduction of intracavernous pressure. The method, then: (c) Male beagle weighing 8.0-12.0 kg were anesthetized with pentobarbital sodium (35 mg/kg, i.v.). After tracheotomy, the animal was artificially ventilated using a volume-cycled ventilator. The femoral artery was cannulated for continuous blood pressure and heart rate monitoring. The femoral vein was cannulated for maintenance of anesthesia and administration of tested compound.
Either the left or right cavernous nerve was exposed posterolaterally to the prostate and a cuff electrode was placed around the nerve for electrical stimulation. A 21-gauge butterfly needle was placed in the corpus cavernousum and connected to a pressure transducer for intracavernous pressure. After a period of stabilization of all parameters, erection was induced by cavernous nerve electrically stimulation (7 Hz, 10 V) and the following was measured: the duration of detumescence (time (T75) from cessation of stimulation to 75% reduction of intracavernous pressure). The test compounds, i.e., N-(3,4-dimethoxybenzyl)-2-(cis-4-hydroxycyclohexylamino)-5-nitrobenzamide and (R)-N-(3,4-dimethoxybenzyl)-2-(2-hydroxy-1-methyl-ethylamino)-5-nitrobenzamide were each dissolved in 50% PEG400.

`C[C@H](CO)Nc1ccc([N+](=O)[O-])cc1C(=O)NCc1ccc(Oc2ccccc2)cc1` [(R)-2-(2-Hydroxy-1-methylethyl)amino-5-nitro-N-(4-phenoxybenzyl)benzamide] returned a melting point of 127 to 129 °C. Moreover, the IC50 at human platelet PDE-V was less than 10 nM.

Regarding `COc1ccc(CNC(=O)c2cc([N+](=O)[O-])ccc2N[C@H](C)CO)cc1OC` [(R)-N-(3,4-Dimethoxybenzyl)-2-(2-hydroxy-(1-methylethylamino)-5-nitrobenzamide], the “relaxation of corpora cavernosa elicited by electrical field stimulation (effect in words)” value with rabbit corpora cavernosa is “potentiated”. In addition, in data set [1], the “Relaxant response elicited by 10 μM nitroprusside” value was found to be 32%. Also, the “The dead (toxicity by repetitive oral administration)” value in the data set on SD rat is “could not be observed”. In addition, the “mean of prolongation of T75” value with Male beagle came out at 44 s.

Compound `Cc1ccc(CNC(=O)c2cc([N+](=O)[O-])ccc2N[C@@H](C)CO)cc1Cl` [(S)-N-(3-Chloro-4-methylbenzyl)-2-(2-hydroxy-1-methylethylamino)-5-nitrobenzamide] yielded a melting point of 178 to 179 °C. In addition, the IC50 at human platelet PDE-V was less than 10 nM.

In the case of `COc1ccc(CNC(=O)c2cc([N+](=O)[O-])ccc2N[C@H]2CC[C@@H](O)CC2)cc1OC` [N-(3,4-Dimethoxybenzyl)-2-(cis-4-hydroxycyclohexylamino)-5-nitrobenzamide], the “relaxation of corpora cavernosa elicited by electrical field stimulation (effect in words)” value in the data set on rabbit corpora cavernosa was “potentiated”. The “The dead (toxicity by repetitive oral administration)” value with SD rat is given as “could not be observed”. In the data set with Male beagle, the “mean of prolongation of T75” value amounted to 52 s.

In the case of `Cc1ccc(CNC(=O)c2cc([N+](=O)[O-])ccc2N[C@H]2CC[C@@H](O)CC2)cc1C` [N-(3,4-Dimethylbenzyl)-2-(cis-4-hydroxycyclohexylamino)-5-nitrobenzamide], the melting point lay within 157 to 158 °C. Also, the half-inhibitory concentration (IC50) on human platelet PDE-V is less than 10 nM.

`COc1ccc(CNC(=O)c2cc([N+](=O)[O-])ccc2N[C@@H](CO)CCSC)cc1OC` [N-(3,4-dimethoxylbenzyl)-2-[(R)-1-hydroxymethyl-3-(methylthio)propylamino]-5-nitrobenzamide] gave a melting point of 150 to 152 °C. Besides, the IC50 on human platelet PDE-V is less than 10 nM.

`O=C(NCc1ccc(F)c(Cl)c1)c1cc([N+](=O)[O-])ccc1NC(CO)CO` [N-(3-Chloro-4-fluorobenzyl)-2-[2-hydroxy-1-(hydroxymethyl)ethylamino]-5-nitrobenzamide] had a melting point of 235 to 238 °C. Besides, the IC50 at human platelet PDE-V is less than 10 nM.

As usually defined, the melting point is the temperature of the solid-liquid transition. Usually IC50 stands for the concentration needed to halve the response being measured.
